Assay results taken from patent publication US10617680B2 (CELGENE QUANTICEL RESEARCH, INC., priority 2017, dated 2020).

Target: CBP (Homo sapiens (Human), UniProt Q92793)
Assay: In vitro CBP inhibition (AlphaScreen, biotinylated H4-tetraacetyl peptide)
Assay type: binding
Conditions: not given
Experimental: The CBP-inhibitory activity of the compounds described herein was determined by calculating the IC50. More specifically, CBP inhibitor activity was assayed as follows: CBP was cloned and expressed in E. coli as His-tag protein and purified by Nickel affinity and gel-filtration chromatography. […] CBP binding and inhibition is assessed by monitoring the interaction of biotinylated H4-tetraacetyl peptide (AnaSpec, H4K5/8/12/16(Ac), biotin-labeled) with the target using the AlphaScreen technology (Perkin Elmer). In a 384-well ProxiPlate CBP (50 nM final) was combined with peptide (20 nM final) in 50 mM HEPES (pH 7.3), 10 mM NaCl, 0.25 mM TCEP, 0.1% (w/v) BSA, and 0.005% (w/v) Brij-35 either in the presence of DMSO (final 0.4% DMSO) or compound dilution series in DMSO. After 20 min incubation at room temp, Alpha-streptavidin donor beads and Nickel Chelate acceptor beads were added to a final concentration of 5 μg/mL.
The ability of the compounds disclosed herein to inhibit CBP activity was quantified and the respective IC50 value determined.

Chain of CBP (Q92793 1081-1197): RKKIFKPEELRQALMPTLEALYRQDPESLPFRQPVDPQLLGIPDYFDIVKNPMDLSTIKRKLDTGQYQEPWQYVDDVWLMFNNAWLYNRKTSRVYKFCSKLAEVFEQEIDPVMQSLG

For `Cn1cc(-c2cnn(Cc3ccccc3)c2)ccc1=O` [Example 1, 5-(1-benzyl-1H-pyrazol-4-yl)-1-methylpyridin-2(1H)-one], the IC50 was 500 to 5000 nM.

Same assay, conditions: AlphaScreen, Table 29; read-out: CBP IC50

`CC(=O)N[C@H]1CCN(c2cc(=O)n(C)cc2-c2cnn(Cc3ccccc3)c2)C1` [Example 73, (S)-N-(1-(5-(1-benzyl-1H-pyrazol-4-yl)-1-methyl-2-oxo-1,2-dihydropyridin-4-yl)pyrrolidin-3-yl) acetamide] and `Cn1ccc(-c2cc(=O)n(C)cc2-c2cnn(Cc3ccccc3)c2)n1` [Example 109, 5-(1-benzyl-1H-pyrazol-4-yl)-1-methyl-4-(1-methyl-1H-pyrazol-3-yl)pyridin-2(1H)-one] fall in the same range of IC50: 500 to 5000 nM for the first, 500 to 5000 nM for the second.

`Cn1cc(-c2cn[nH]c2)c(-c2ccccc2)cc1=O` [Example 133, 1-methyl-4-phenyl-5-(1H-pyrazol-4-yl)pyridin-2(1H)-one] and `CCn1cc(-c2cn(C)c(=O)cc2-c2ccccc2)cn1` [Example 132, 5-(1-ethyl-1H-pyrazol-4-yl)-1-methyl-4-phenylpyridin-2(1H)-one] cannot be ordered by IC50: under 500 nM for the first, under 500 nM for the second.

`Cn1cc(-c2cnn(-c3cccc(C4CC4)c3C#N)c2)c(-c2ccn(CCO)c(=O)c2)cc1=O` [Example 390, 2-cyclopropyl-6-[4-[4-[1-(2-hydroxyethyl)-2-oxo-4-pyridyl]-1-methyl-6-oxo-3-pyridyl]pyrazol-1-yl]benzonitrile] and `Cn1cc(-c2cnn(-c3cccc(C4CC4)c3C#N)c2)c(-c2ccn(C3CC3)c(=O)c2)cc1=O` [Example 388, 2-cyclopropyl-6-(4-(1′-cyclopropyl-1-methyl-2′,6-dioxo-1,1′,2′,6-tetrahydro-[4,4′-bipyridin]-3-yl)-1H-pyrazol-1-yl)benzonitrile] cannot be ordered by IC50: under 500 nM for the first, under 500 nM for the second.

`Cn1cc(-c2cnn(-c3cccc(Cl)c3C#N)c2)c(-c2ccc(NC3CCCC3)nc2)cc1=O` [Example 340, 2-chloro-6-(4-(6-(cyclopentylamino)-1′-methyl-6′-oxo-1′,6′-dihydro-[3,4′-bipyridin]-3′-yl)-1H-pyrazol-1-yl)benzonitrile] and `Cn1cc(-c2cnn(-c3cccc(Cl)c3C#N)c2)c(-c2ccc(C3CC3)nc2)cc1=O` [Example 366, 2-chloro-6-[4-[4-(6-cyclopropyl-3-pyridyl)-1-methyl-6-oxo-3-pyridyl]pyrazol-1-yl]benzonitrile] cannot be ordered by IC50: under 500 nM for the first, under 500 nM for the second.

`Cc1cc(-c2cnn(-c3cc(Oc4ccccc4)ccc3C#N)c2)cn(C)c1=O` [Example 258, 2-[4-(1,5-Dimethyl-6-oxo-1,6-dihydro-pyridin-3-yl)-pyrazol-1-yl]-4-phenoxy-benzonitrile] and `CCOc1cc(=O)n(C)cc1-c1cnn(-c2cc(Oc3ccccc3)ccc2C#N)c1` [Example 183, 2-[4-(4-Ethoxy-1-methyl-6-oxo-1,6-dihydro-pyridin-3-yl)-pyrazol-1-yl]-4-phenoxy-benzonitrile] cannot be ordered by IC50: under 500 nM for the first, under 500 nM for the second.

`Cc1nn(C)cc1-c1cn(C)c(=O)cc1-c1ccccc1` [Example 136, 5-(1,3-dimethyl-1H-pyrazol-4-yl)-1-methyl-4-phenylpyridin-2(1H)-one] and `Cc1cccc(-c2cc(=O)n(C)cc2-c2cnn(Cc3ccccc3)c2)c1` [Example 111, 5-(1-benzyl-1H-pyrazol-4-yl)-1-methyl-4-(m-tolyl)-pyridin-2(1H)-one] cannot be ordered by IC50: under 500 nM for the first, under 500 nM for the second.

`COc1ccc(-c2cc(=O)n(C)cc2-c2cnn(-c3ccccc3C(=O)O)c2)cn1` [Example 228, 2-[4-(6-Methoxy-1′-methyl-6′-oxo-1′,6′-dihydro-[3,4′]bipyridinyl-3′-yl)-pyrazol-1-yl]-benzoic acid] and `CCOc1ccc(-c2cc(=O)n(C)cc2-c2cnn(-c3cc(OC)ccc3C(=O)O)c2)cn1` [Example 271, 2-[4-(6-Ethoxy-1′-methyl-6′-oxo-1′,6′-dihydro-[3,4′]bipyridinyl-3′-yl)-pyrazol-1-yl]-4-methoxy-benzoic acid] cannot be ordered by IC50: under 500 nM for the first, under 500 nM for the second.

`Cn1cc(-c2cnn(C3CCN(S(C)(=O)=O)CC3)c2)c(-c2ccccc2)cc1=O` [Example 127, 1-methyl-5-(1-(1-(methyl-sulfonyl)-piperidin-4-yl)-1H-pyrazol-4-yl)-4-phenylpyridin-2(1H)-one] and `Cn1cc(-c2cnn(Cc3ccccc3)c2)c(-c2ccc(C(=O)O)cc2)cc1=O` [Example 155, 4-(5-(1-benzyl-1H-pyrazol-4-yl)-1-methyl-2-oxo-1,2-dihydropyridin-4-yl)benzoic acid] cannot be ordered by IC50: under 500 nM for the first, under 500 nM for the second.

`CCc1ccc(-c2cc(=O)n(C)cc2-c2cnn(-c3ccccc3C#N)c2)cn1` [Example 373, 2-(4-(6-ethyl-1-methyl-6′-oxo-1′,6′-dihydro-[3,4′-bipyridin]-3′-yl)-1H-pyrazol-1-yl)benzonitrile] and `CCc1ccc(-c2cc(=O)n(C)cc2-c2cnn(-c3cccc(F)c3C#N)c2)cn1` [Example 372, 2-(4-(6-ethyl-1′-methyl-6-oxo-1′,6′-dihydro-[3,4′-bipyridin]-3′-yl)-1H-pyrazol-1-yl)-6-fluorobenzonitrile] cannot be ordered by IC50: under 500 nM for the first, under 500 nM for the second.

Compared with `CC(c1ccccc1)n1cc(-c2cc(F)c(=O)n(C)c2)cn1` (centres unmarked) [Example 26, 3-fluoro-1-methyl-5-(1-(1-phenylethyl)-1H-pyrazol-4-yl) pyridin-2(1H)-one], `CC(C)Oc1cc(=O)n(C)cc1-c1cnn([C@H](C)c2ccccc2)c1` [Example 45, (R)-4-isopropoxy-1-methyl-5-(1-(1-phenylethyl)-1H-pyrazol-4-yl) pyridin-2(1H)-one] is lower in IC50: 500 to 5000 nM for the first, under 500 nM for the second.

`Cn1cc(-c2cnn(-c3cccc(F)c3C#N)c2)c(-c2ccc(C3CCCC3)nc2)cc1=O` [Example 378, 2-(4-(6-cyclopentyl-1′-methyl-6′-oxo-1′,6′-dihydro-[3,4′-bipyridin]-3′-yl)-1H-pyrazol-1-yl)-6-fluorobenzonitrile] and `CC(C)Nc1ccc(-c2cc(=O)n(C)cc2-c2cnn(-c3cccc(F)c3C#N)c2)cn1` [Example 351, 2-fluoro-6-(4-(6-(isopropylamino)-1′-methyl-6′-oxo-1′,6′-dihydro-[3,4′-bipyridin]-3′-yl)-1H-pyrazol-1-yl)benzonitrile] cannot be ordered by IC50: under 500 nM for the first, under 500 nM for the second.

`COCCNc1ncc(-c2cc(=O)n(C)cc2-c2cnn(-c3cccc(Cl)c3C#N)c2)cn1` [Example 326, 2-chloro-6-(4-(4-(2-((2-methoxyethyl)amino)pyrimidin-5-yl)-1-methyl-6-oxo-1,6-dihydropyridin-3-yl)-1H-pyrazol-1-yl)benzonitrile] and `Cn1cc(-c2cnn(-c3cccc(Cl)c3C#N)c2)c(-c2cnc(N3CCOCC3)nc2)cc1=O` [Example 335, 2-chloro-6-(4-(1-methyl-4-(2-morpholinopyrimidin-5-yl)-6-oxo-1,6-dihydropyridin-3-yl)-1H-pyrazol-1-yl)benzonitrile] cannot be ordered by IC50: under 500 nM for the first, under 500 nM for the second.

First: CC(c1ccccc1Cl)n1cc(-c2ccc(=O)n(C)c2)cn1 (centres unmarked) [Example 19, 5-(1-(1-(2-chlorophenyl)ethyl)-1H-pyrazol-4-yl)-1-methyl-pyridin-2(1H)-one]
Second: Cn1cc(-c2cnn(Cc3ccc(F)cc3)c2)ccc1=O [Example 6, 5-(1-(4-fluorobenzyl)-1H-pyrazol-4-yl)-1-methylpyridin-2(1H)-one]
The IC50 of the first is lower: under 500 nM for the first, 500 to 5000 nM for the second.

`CCOc1cc(=O)n(C)cc1-c1cnn(-c2ccccc2C#N)c1` [Example 281, 2-(4-(4-ethoxy-1-methyl-6-oxo-1,6-dihydropyridin-3-yl)-1H-pyrazol-1-yl)benzonitrile] and `Cn1cc(-c2cnn(-c3ccccc3C#N)c2)c(-c2cc[nH]c(=O)c2)cc1=O` [Example 205, 2-[4-(1-Methyl-6,2′-dioxo-1,6,1′,2′-tetrahydro-[4,4′]bipyridinyl-3-yl)-pyrazol-1-yl]-benzonitrile] cannot be ordered by IC50: under 500 nM for the first, under 500 nM for the second.

`COc1ccc(-c2cc(=O)n(C)cc2-c2cnn(-c3cccc(C4CC4)c3C#N)c2)cn1` [Example 383, 2-cyclopropyl-6-(4-(6-methoxy-1′-methyl-6′-oxo-1′,6′-dihydro-[3,4′-bipyridin]-3′-yl)-1H-pyrazol-1-yl)benzonitrile] and `CN(C)CCCOc1ccc(-c2cc(=O)n(C)cc2-c2cnn(-c3cccc(C4CC4)c3C#N)c2)cn1` [Example 382, 2-cyclopropyl-6-(4-(6-(3-(dimethylamino)propoxy)-1′-methyl-6′-oxo-1′,6′-dihydro-[3,4′-bipyridin]-3′-yl)-1H-pyrazol-1-yl)benzonitrile] cannot be ordered by IC50: under 500 nM for the first, under 500 nM for the second.

`Cn1cc(-c2cc(=O)n(C)cc2-c2cnn(-c3ccccc3-c3nnn[nH]3)c2)cn1` [Example 300, 1-Methyl-4-(1-methyl-1H-pyrazol-4-yl)-5-{1-[2-(1H-tetrazol-5-yl)-phenyl]-1H-pyrazol-4-yl}-1H-pyridin-2-one] and `Cn1cc(-c2cnn(-c3ccccc3C(=O)NC#N)c2)c(-c2ccc(F)cc2)cc1=O` [Example 288, N-cyano-2-(4-(4-(4-fluorophenyl)-1-methyl-6-oxo-1,6-dihydropyridin-3-yl)-1H-pyrazol-1-yl)benzamide] cannot be ordered by IC50: under 500 nM for the first, under 500 nM for the second.

`CN(C)CCCOc1ccc(-c2cc(=O)n(C)cc2-c2cnn(-c3ccccc3C#N)c2)cn1` [Example 355, 2-(4-(6-(3-(dimethylamino)propoxy)-1′-methyl-6′-oxo-1′,6′-dihydro-[3,4′-bipyridin]-3′-yl)-1H-pyrazol-1-yl)benzonitrile] and `CC(c1ccccc1)n1cc(-c2cn(C)c(=O)cc2OCc2ccn(C)n2)cn1` (centres unmarked) [Example 44, 1-methyl-4-((1-methyl-1H-pyrazol-3-yl)methoxy)-5-(1-(1-phenyl-ethyl)-1H-pyrazol-4-yl) pyridin-2(1H)-one] cannot be ordered by IC50: under 500 nM for the first, under 500 nM for the second.
